Laboratory results from paper PMC6010102, “N-thioalkylcarbazoles derivatives as new anti-proliferative agents: synthesis, characterisation and molecular mechanism evaluation” (Journal of Enzyme Inhibition and Medicinal Chemistry, 2018).

How the values were obtained:
[1] = test system: MDA-MB-231 human breast cancer cells; experiment: MTT cell viability, MDA-MB-231; assay type: cell-based; details: 72 h exposure, mean ± SD, read-out: Antiproliferative activity IC50, MDA-MB-231
Source text: (§1) The six cell lines used in this work were purchased from American Type Culture Collection (ATCC, Manassas, VA). MCF-7 human breast cancer cells, oestrogen receptor (ER) positives, were maintained in Dulbecco’s Modified Eagle’s Medium/Nutrient Mixture F-12 Ham (DMEM/F12), supplemented with 5% foetal bovine serum (FBS) and 100 U/ml penicillin/streptomycin, as previously described. MDA-MB-231, human breast cancer cells, oestrogen receptor (ER) negative, were maintained in Dulbecco’s Modified Eagle’s Medium/Nutrient Mixture F-12 Ham (DMEM/F12), supplemented with 5% Newborn Calf Serum (NCS) and 100 U/ml penicillin/streptomycin. HeLa human epithelial cervix carcinoma cells, oestrogen receptor (ER) negative, and ISHIKAWA human endometrial adenocarcinoma cell, oestrogen receptor positive, were maintained in minimum essential medium (MEM), supplemented with 10% FBS, 100 U/ml penicillin/streptomycin and 1% non-essential amino acid. 3T3-L1 cells line of murine fibroblasts of embryonic type, were maintained in DMEM, supplemented with 10% NCS and 100 U/ml penicillin/streptomycin. MCF-10A human mammary epithelial cells were cultured in DMEM/F12 medium, supplemented with 5% horse serum (HS) (Eurobio, Les Ullis, Cedex, France), 100 U/ml penicillin/streptomycin, […] hydrocortisone, 20 ng/ml hEGF (human epidermal growth factor), 10 μg/ml insulin and […] cholera enterotoxin (Sigma-Aldrich, Milano, Italy). Cells were maintained at 37 °C in a humidified atmosphere of 95% air and 5% CO2 and periodically screened for contamination.
(§2) MDA-MB-231, MCF-7, HeLa and ISHIKAWA cells were grown in complete medium and, before being treated, they were serum deprived for 24 h, to allow cell cycle synchronisation. Then cells were grown in phenol red-free medium supplemented with 1% DCC (destran-coated charcoal treated) FBS, then treated with increasing concentrations (0.1, 1, 10, 20, 40, 100 µM) of each compound for 72 h. Compounds were dissolved in dimethylsulphoxide (DMSO) (Sigma, St. Louis, MO) and diluted in each cell medium. Untreated cells, used as a control, were added with DMSO alone (final concentration 0.1%). Cell viability was assessed using the 3-[4,5-dimethylthiazol-2-yl]-2,5-diphenyltetrazolium bromide reagent (MTT), according to the protocol from manufacturer (Sigma-Aldrich, Milan, Italy), as previously described[37] ^, [38]. For each sample, the mean absorbance, measured at 570 nm, was expressed as a percentage of the control and plotted versus drug concentration to determine for each cell line the IC50 values (namely, drugs concentrations able to reduce cell viability of 50% with respect to the control), using GraphPad Prism 5 Software (GraphPad Inc., San Diego, CA)[39]. Each experiment was carried out in quadruplicate. Standard deviations (SD) were shown.

[2] = test system: MCF-10A human mammary epithelial cells; experiment: MTT cell viability, MCF-10A; assay type: cell-based; details: non-tumoural cells, 72 h exposure, mean ± SD, read-out: Antiproliferative activity IC50, MCF-10a
Source text: as §1, §2

HeLa cells = experiment: TUNEL assay in HeLa cells; assay type: cell-based, human; details: concentration equal to IC50, 24 h
Description: Apoptosis was detected by the TUNEL assay, according to the guidelines of the manufacturer (CF™488A TUNEL Assay Apoptosis Detection Kit, Biotium, Hayward, CA)[8]. Briefly, cells were grown on glass coverslips and, after treatment, they were washed trice with PBS, then methanol-fixed at −20 °C for 15 min. Fixed cells were washed trice with 0.01% (V/V) Triton X-100 in PBS and incubated with 100 µL of TUNEL equilibration buffer for 5 min. After its removal, 50 µL of TUNEL reaction mixture containing 1 µL of terminal deoxynucleotidyl transferase (TdT) were added to each sample and incubated in a dark and humidified chamber for 2 h at 37 °C. Samples were washed trice with ice-cold phosphate-buffered saline (PBS) containing 0.1% Triton X-100 and 5 mg/mL bovine serum albumin (BSA). 2-(4-Amidinophenyl)-6-indolecarbamidine dihydrochloride (DAPI) (0.2 µg/mL) counterstain was performed (10 min, 37 °C, dark and humidified conditions). After three additional washes with cold PBS, one drop of mounting solution was added, then they were observed and imaged under a fluorescence microscope (Leica DM 6000, Leica, Frankfurt am Main, Germany) (20× magnification) with excitation/emission wavelength maxima of 490 nm/515 nm (CF^TM488A) or 350 nm/460 nm (DAPI). Representative fields were shown. The experiments were repeated three times.

Cytochrome c = Cytochrome c immunofluorescence in HeLa cells; assay type: cell-based, human; details: concentration equal to IC50, 24 h
Description: Cells were grown on glass coverslips in full media, then serum-deprived for 24 h and exposed to compound to test, at the indicated time. Then, they were PBS-washed, fixed with cold methanol (15 min/−20 °C) and washed three times (10 min/room temperature) with cold PBS containing 0.01% TritonX-100. After incubation (30 min/room temperature) with blocking solution (PBS, 2% BSA), they were incubated with primary antibody diluted in blocking solution (4 °C/overnight). The mouse anti-cytochrome c (556433) was purchased from BD Biosciences (Franklin Lakes, NJ) and used at 1:100 dilution. Coverslips were then washed three times with PBS, then fixed cells were incubated with the secondary antibody Alexa Fluor® 568 conjugate goat-anti-mouse (1:500, Thermo Fisher Scientific, Waltham, MA). Nuclei were stained using DAPI (Sigma-Aldrich, Milan, Italy) for 10 min at a concentration of 0.2 µg/mL then washed three times with PBS. Fluorescence was detected using a fluorescence microscope (Leica DM 6000 Leica, Frankfurt am Main, Germany). LASX software was used to acquire and process all images.

`Cc1ccc(C)c2c1c1cc(Br)ccc1n2CCCCCCCS` [5c, 7-(6-Bromo-1,4-dimethyl-9H-carbazol-9-yl)-heptane-1-thiol] was tested, and the IC50 [1] was 27.2 ± 0.75 µM, the IC50 [2] was greater than 100 µM and the “apoptosis / DNA damage (TUNEL)” value (HeLa cells) was “induced DNA damage and led to cell death triggering the apoptotic mechanism”. The Cytochrome c localisation (Cytochrome c) was “determines the release of Cytochrome c from mitochondria to the cytosol”.
